For one experiment, the system named is TAP KO melanoma cells. As to the kind of experiment: Recognition of TAP-deficient versus wild-type melanoma cells by peptide-induced T cell cultures. The format is cell-based, human. The source says:
(A) Schematic overview of the tetramer pull-down approach and subsequent stimulation with short peptides. (B) Specificity of polyclonal […] peptide isolated T cells (upper panel) or […] peptide isolated T cells (bottom panel) as measured by staining of the T cells with two fluorescently labeled tetramers comprising the short natural sequence (horizontal axis) or the V-substituted peptide (vertical axis) by flow cytometry. (C) Geomeans for double tetramer positive cells on […] or […] peptide isolated T cells. (D) IFNy and GM-CSF production of polyclonal T cell bulks when stimulated with peptide pulsed EBV-JY cells as measured by ELISA. Means and SD are plotted of one out of three independent experiments. (E) Reactivity of these polyclonal T cell bulks when stimulated with wild-type and TAP knock out 518A2 melanoma cells (rendered TAP-deficient by CRISPR/CAS9 technology) or no tumor cells (control) as measured by indicated cytokine production using ELISA.
18-mer (also referred to as 18-meer) is SEQ ID NO: 4; 21-mer (also referred to as 21-meer) SEQ ID NO: 5; 24-mer (also referred to as 24-meer) is SEQ ID NO:6; and 27-mer (also referred to as 27-meer) is SEQ ID NO: 7. […]
To test the functionality of these T cell bulks, cytokine responses were measured towards both short peptides pulsed on immortalized HLA-A*0201 positive B cells (FIG. 2d). […]

The subject of the next experiment is LRPAP1-specific T cells. As to the kind of experiment: In vitro vaccination: SLP-loaded moDC co-cultured with tetramer-enriched autologous T cells, tetramer analysis. The format is cell-based, human. The conditions noted are these: 2 healthy blood donors stimulated 2-3 times with length variants. The method, then:
In short, CD14 monocytes isolated from PBMC of healthy donors were differentiated into dendritic cells by culturing with GM-CSF and IL-4 for 6 days. On day 7, moDCs were plated in 96-well and incubated with 20 uM of V-SLP for 20 h. During the last 18 hours the DCs were matured with […] LPS. On day 8, the moDCs were washed and co-cultured with PBMC enriched for LRPAP1-specific T cells by […]-tetramers. (A) Schematic overview of the in vitro vaccination protocol using two V-variant peptides (C-terminal and N-terminal extended) as synthetic long peptides that require cross-presentation by monocyte-derived dendritic cells for priming of CD8 T cells. […] Control co-cultures were incubated without a peptide. (C) LRPAP1-specific T cell clones were generated via single cell FACS sort and their specificity to the wild type (S-variant) and the V-variant peptide was assessed using two fluorescently labeled tetramers comprising the short wild type sequence (horizontal axis) or the V-substituted peptide (vertical axis) by flow cytometry. Clone 1A8 was generated and described in a previous study^7, and used here as a reference clone. (D) LRPAP1-specific T cells clones were examined for recognition of TAP-deficient melanoma cell lines and their wild-type counterparts. Clones 2H11, 2B9 and 1A10 are shown. Means and SD are shown from one out of two experiments with similar outcome. Clone 1A8, shown in (E), served as positive control. (E) LRPAP1-specific T cells clones were examined for recognition of TAP-deficient melanoma cell lines and their wild-type counterparts. Clones 4B11, 1C5, and 1A8 are shown. Means and SD are shown from one out of two experiments with similar outcome. Clone 1A8, served as positive control. […]
HLA-A*02:01 positive PBMCs were isolated from buffy-coats from consented donors (Sanquin bloodbank, Amsterdam), using a gradient ficoll layer. […] T cell specificity and reactivity were analyzed by flow cytometry.
Tetramer staining on CD8 T cells was performed by 15 min incubation at 4° C. and washed three times with cold PBS/BSA prior to cell surface staining. […] T cell activation was measured by intracellular IFNγ staining (XMF1.2, Biolegend) using an ICS kit (BioLegend) according to manufactures protocol. moDCs were stained with anti-CD1a (clone HI149, BD), anti-CD14 (clone M5E2, BD), anti-CD80 (clone L307.4, BD), anti-CD83 (clone HB15e, BD), anti-CD86 (clone IT2.2, biolegend), and anti HLA-DR (clone G46-6, BD) antibodies for 30 min at 4° C. and washed three times with cold PBS/BSA. Samples were acquired using a BD LSRFortessa™ flow cytometry system and analyzed using FlowJo software (Tree Star). […]

The subject of experiment [1] is LRPAP1-specific T cell clone.
Experiment [2] deals with TCR-transduced CD8 T cells. Briefly: Reactivity of TCR-transduced T cells to peptide pulsed EBV-JY cells (cytokine ELISA). The format is cell-based, human. The note with it: V-variant compared with S-variant peptide. An excerpt: (B) TCRαβ gene transduction into T cells from a healthy donor. The introduced genes contain the murine TCR-αβ domain which enhances correct pairing of transgenic alpha and beta chains. Expression of this domain is confirmed in TCR-transduced T cells (on the horizontal axis). (C) Staining of TCRαβ transduced CD8 T cells with fluorescently labeled tetramers comprising the short natural peptide sequence (left panel) or the V-substituted peptide (right panel). (D) Functional reactivity of tetramer-enriched TCR-transduced T cells to peptide pulsed EBV-JY cells as measured by indicated cytokine production using ELISA. Means and SD are depicted from one out of three experiments with similar outcome. […] TCR-transduced T cells were stimulated with either the wild type version of two different melanoma cell lines, or their TAP knock out (TAP KO) variants generated by CRISPR/CAS9 technology. […] T cells only served as control.
Platinum-Amphotropic retrovirus production (Plat-A) retroviral packing cells (Cell Biolabs) were used for retrovirus production. Plat-A cells were seeded in 6-well plates and incubated overnight until fully attached. Next, the cells were transfected with 2 μg pMP71_1A8 TCR vector using lipofectamine 2000. Retrovirus supernatant was collected on 24 h and 48 h after transfection, spun down to remove cells, and stored in −80° C. […]
(ELISA stands for enzyme-linked immunosorbent assay.)

Experiment [3] deals with monocyte-derived dendritic cells. As to the kind of experiment: Cross-presentation of long peptides by monocyte-derived dendritic cells, read out by LRPAP1-specific CD8 T cell clone cytokine release. The format is cell-based, human. The note with it: positive control on moDC. The method, then:
(A) Monocyte-derived dendritic cells were incubated with indicated long peptides comprising the LRPAP1 epitope and co-cultured with a TEIPP-specific CD8 T cell clone 1A8. Non-natural flanking amino acids at the amino-terminus, or natural flanking amino acids at the carboxy-terminus or natural flanking amino acids at both ends were used to elongate the minimal epitope. GM-CSF secretion by the TEIPP-specific T cell clone was used to determine cross-presentation efficiency and pulsing with short peptide ([…]) was used as positive control. (B) Predicted HLA-A2*01 binding affinity scores of LRPAP1 peptides with substituted amino acids at the C-terminal p9 (MHCnet 4.0 algorithm). Binding affinity score was calculated on basis of the IC50 values and ranking percentage (see Table 2 for exact values). (C) Predicted proteasome cleavage activity for four different LRPAP1 peptides using NetCHop 3.1 algorithm. […] (D) Functional T cell avidity was measured as GM-CSF secretion by TEIPP-specific T cell clone stimulated with short peptide—pulsed EBV-JY cells in serial dilutions of the peptides. […] (E) EC50 values were calculated from values obtained in D (wherein EC values represent the dose of peptide resulting in half of the maximal response to that particular peptide variant). […] Cross-presentation of the indicated long peptides was determined by T cell clone. […]

A further experiment addresses HLA-A*0201 (Homo sapiens, UniProt P04439, D140Y/D185E/D98H/E176V/E277Q/G131W/G231S/I119V/I121R/I166T/I218V/L300P/L318F/N151K/N90K/P208A/P217A/Q86G/Q94H/R138H/R169H/T345S). The conditions noted are these: previous studies; cited from earlier work.

A word on the EC50: it is the midpoint of the concentration-response curve. A lower EC50 goes with greater potency.

No end group written: not given here.

RSFLRGLPALLLLLLFLGPWPAAV [24-mer]: the “recognition of TAP KO versus TAP proficient melanoma cell lines by long peptide stimulated T cell cultures” value in the experiment with TAP KO melanoma cells (co-cultures with TAP proficient and TAP KO melanoma cell lines) is “preferentially recognize the TAP KO melanoma cells”. The “expansion of HLA-A*02:01 FLGPWPAAS-specific CD8+ T cells” value (shortened to “expansion”) in the experiment on LRPAP1-specific T cells is recorded as “able to stimulate the expansion”.

For LRGLPALLLLLLFLGPWPAAV [21-mer], the “expansion” value with LRPAP1-specific T cells is reported as “able to stimulate the expansion”.

FLGPWPAAL [FLGPWPAAL] returned an EC50 in experiment [1] of 3.7 µg/mL.

As to FLGPWPAAV, in the experiment on TAP KO melanoma cells (518A2 melanoma cell line), the “recognition of TAP-negative versus wild type melanoma by peptide induced polyclonal T cell cultures” value is “preferred recognition of the TAP-negative tumor line”. In experiment [1], this sequence came in with an EC50 of 0.1 µg/mL. Besides, the “fold better T cell activation” value in experiment [1] (V versus S at the C-terminus) was 19 fold. Also, the “cytokine response compared to the S-peptide” value in experiment [1] (short peptide variants exogenously pulsed, titrated concentrations) was “more potent”. Also, the “cytokine responses of TCR-transduced T cells” value in experiment [2] is reported as “stronger cytokine responses”.

FLGPWPAAS: the EC50 in experiment [1] was 1.9 µg/mL. Further, the “T cell stimulation by exogenous pulsing of short peptide” value in experiment [3] was “did stimulate the T cells”. Also, the “binding affinity onto HLA-A*0201” value at HLA-A*0201 is listed as “moderate”.

Turning to RRVRSFLRGLPALLLLLLFLGPWPAAV [27-mer], the “expansion” value with LRPAP1-specific T cells was “able to stimulate the expansion”.

As to LPALLLLLLFLGPWPAAV [18-mer], in the experiment with LRPAP1-specific T cells, the “expansion” value is “able to stimulate the expansion”.

In experiment [1], FLGPWPAAI showed an EC50 of 0.7 µg/mL.

Values taken from patent US12534497B2, “TEIPP peptide variant and use as a medicament” (Academisch Ziekenhuis Leiden (h.o.d.n. LUMC), priority 2019, dated 2026).
